Literature values, collected in patent EP4813985A1, “PREPARATION OF QUINAZOLINONE DERIVATIVE AS KINASE INHIBITOR, AND USE THEREOF” (Xizang Haisco Pharmaceutical Co., Ltd., priority 2023, dated 2025).

Columns and labels:
[1] = biological target: MDR1 (Homo sapiens, UniProt P08183); conditions: reported in the background; cited from earlier work
[2] = biological target: T1, BCRP (Homo sapiens, UniProt Q9UNQ0); conditions: reported in the background; cited from earlier work
T1 sequence (Q9UNQ0 1-655): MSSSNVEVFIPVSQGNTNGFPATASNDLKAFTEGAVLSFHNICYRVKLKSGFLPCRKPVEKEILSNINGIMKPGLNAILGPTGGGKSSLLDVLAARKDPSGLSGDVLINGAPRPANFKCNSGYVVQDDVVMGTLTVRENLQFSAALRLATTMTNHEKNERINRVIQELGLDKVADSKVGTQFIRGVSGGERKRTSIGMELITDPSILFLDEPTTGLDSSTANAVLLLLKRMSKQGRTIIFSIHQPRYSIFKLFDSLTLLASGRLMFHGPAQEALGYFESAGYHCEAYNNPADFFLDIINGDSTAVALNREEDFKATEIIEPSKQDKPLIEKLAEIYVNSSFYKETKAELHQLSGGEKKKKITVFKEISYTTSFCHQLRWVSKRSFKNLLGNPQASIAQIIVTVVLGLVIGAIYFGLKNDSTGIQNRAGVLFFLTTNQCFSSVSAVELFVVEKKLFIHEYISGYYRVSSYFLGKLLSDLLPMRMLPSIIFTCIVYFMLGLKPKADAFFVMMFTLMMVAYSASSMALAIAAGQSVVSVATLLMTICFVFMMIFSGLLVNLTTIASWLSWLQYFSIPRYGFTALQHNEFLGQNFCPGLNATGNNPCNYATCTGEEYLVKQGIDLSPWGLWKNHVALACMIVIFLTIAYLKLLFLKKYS

[3] = reported in the background; cited from earlier work

Sequence of MDR1 (P08183 whole entry, species assumed): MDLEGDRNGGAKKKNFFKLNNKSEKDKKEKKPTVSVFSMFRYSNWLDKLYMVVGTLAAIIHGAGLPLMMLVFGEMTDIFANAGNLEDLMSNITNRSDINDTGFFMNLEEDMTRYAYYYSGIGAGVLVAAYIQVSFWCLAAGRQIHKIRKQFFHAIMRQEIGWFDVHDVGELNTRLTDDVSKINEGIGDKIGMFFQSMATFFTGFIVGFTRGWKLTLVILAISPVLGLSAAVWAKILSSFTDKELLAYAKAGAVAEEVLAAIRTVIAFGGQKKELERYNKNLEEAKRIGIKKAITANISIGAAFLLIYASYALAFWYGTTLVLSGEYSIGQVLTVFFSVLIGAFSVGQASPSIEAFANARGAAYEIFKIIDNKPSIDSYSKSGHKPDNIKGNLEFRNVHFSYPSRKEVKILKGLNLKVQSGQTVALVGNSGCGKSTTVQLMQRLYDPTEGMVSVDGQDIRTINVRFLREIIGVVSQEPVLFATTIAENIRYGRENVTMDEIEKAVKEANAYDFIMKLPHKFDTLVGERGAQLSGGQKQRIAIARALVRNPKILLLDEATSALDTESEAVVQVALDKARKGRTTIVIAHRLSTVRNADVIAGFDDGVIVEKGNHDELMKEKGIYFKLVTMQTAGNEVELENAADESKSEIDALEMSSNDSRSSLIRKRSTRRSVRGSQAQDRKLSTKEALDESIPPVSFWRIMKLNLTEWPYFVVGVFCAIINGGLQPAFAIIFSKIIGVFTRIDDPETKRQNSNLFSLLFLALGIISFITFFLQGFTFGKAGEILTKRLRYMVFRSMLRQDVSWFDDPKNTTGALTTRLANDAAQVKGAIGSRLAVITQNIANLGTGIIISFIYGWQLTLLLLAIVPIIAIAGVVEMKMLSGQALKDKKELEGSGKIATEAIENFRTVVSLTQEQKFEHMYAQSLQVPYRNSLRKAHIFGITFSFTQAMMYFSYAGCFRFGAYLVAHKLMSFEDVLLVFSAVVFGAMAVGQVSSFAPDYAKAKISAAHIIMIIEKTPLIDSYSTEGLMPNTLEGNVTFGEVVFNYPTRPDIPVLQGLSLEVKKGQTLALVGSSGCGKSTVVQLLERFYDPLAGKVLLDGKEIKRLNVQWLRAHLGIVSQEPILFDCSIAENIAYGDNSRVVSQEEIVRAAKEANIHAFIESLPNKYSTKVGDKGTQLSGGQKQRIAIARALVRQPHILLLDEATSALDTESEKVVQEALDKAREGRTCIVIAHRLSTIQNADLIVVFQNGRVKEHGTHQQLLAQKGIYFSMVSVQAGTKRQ

SMILES: CC(C)(C)c1nc(-c2cccc(NS(=O)(=O)c3c(F)cccc3F)c2F)c(-c2ccnc(N)n2)s1 [dabrafenib]
- MDR1 efflux ratio [1]: 11.4
- BCRP efflux ratio [2]: 21.0
- total brain-to-plasma ratio [3]: 0.023
